Data on 16 compounds can be found in patent publication US9073855B2, “BCL-2 selective apoptosis-inducing agents for the treatment of cancer and immune diseases” (AbbVie Inc., priority 2008, dated 2015).

One test concerns the target GST-Bcl-2 (Homo sapiens, UniProt P10415). Nature of the test: TR-FRET binding assay, GST-Bcl-2 with F-Bak peptide probe. Conditions: for Ki: TR-FRET Binding Affinity; for Binding selectivity ratio (Bcl-XL Ki/Bcl-2 Ki): TR-FRET, Bcl-XL Ki divided by Bcl-2 Ki. The procedure, abridged: (§1)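 Ki was derived with Wang's equation for competitive binding of two ligands. The read-out was time-resolved fluorescence after a 3 h room-temperature incubation, using a Tb-labelled antibody donor and the F-Bak peptide acceptor (excitation 340/35 nm). Test compounds entered as DMSO serial dilutions starting at 50 μM, which was the 2× concentration.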

A further test concerns the target GST-Bcl-XL (Homo sapiens, UniProt Q07817). Nature of the test: TR-FRET binding assay, GST-Bcl-XL with F-Bak peptide probe. Conditions: TR-FRET Binding Affinity. In outline: as §1

GST-Bcl-2, sequence (P10415 whole entry): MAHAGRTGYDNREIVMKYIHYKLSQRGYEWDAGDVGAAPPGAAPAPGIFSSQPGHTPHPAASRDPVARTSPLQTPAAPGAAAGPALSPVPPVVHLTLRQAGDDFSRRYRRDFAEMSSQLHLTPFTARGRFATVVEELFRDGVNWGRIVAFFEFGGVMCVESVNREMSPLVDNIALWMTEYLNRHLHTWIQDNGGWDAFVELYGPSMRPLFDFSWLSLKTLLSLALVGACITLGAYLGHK
GST-Bcl-XL, sequence (Q07817 whole entry): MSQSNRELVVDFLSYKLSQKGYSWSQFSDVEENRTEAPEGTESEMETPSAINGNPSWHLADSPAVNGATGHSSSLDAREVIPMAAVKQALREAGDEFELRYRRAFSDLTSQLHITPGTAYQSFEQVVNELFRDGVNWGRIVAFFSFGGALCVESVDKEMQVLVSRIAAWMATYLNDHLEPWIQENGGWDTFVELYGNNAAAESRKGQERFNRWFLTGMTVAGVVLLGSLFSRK

Regarding `COCCOCCN1CCO[C@H](CNc2ccc(S(=O)(=O)NC(=O)c3ccc(N4CCN(CC5=C(c6ccc(Cl)cc6)CC(C)(C)CC5)CC4)cc3Oc3cccc4[nH]cnc34)cc2[N+](=O)[O-])C1` [Example 455, 2-(1H-benzimidazol-4-yloxy)-4-(4-{[2-(4-chlorophenyl)-4,4-dimethylcyclohex-1-en-1-yl]methyl}piperazin-1-yl)-N-({4-[({(2R)-4-[2-(2-methoxyethoxy)ethyl]morpholin-2-yl}methyl)amino]-3-nitrophenyl}sulfonyl)benzamide], the Ki on GST-Bcl-2 turned out to be 0.004 nM; on GST-Bcl-XL, 0.619 nM. Besides, at GST-Bcl-2, the “Binding selectivity ratio (Bcl-XL Ki/Bcl-2 Ki)” value (from here on “Binding selectivity ratio”) was 139.4.
For `CC1(C)CCC(CN2CCN(c3ccc(C(=O)NS(=O)(=O)c4ccc(NCC5CCC(F)(F)CC5)c([N+](=O)[O-])c4)c(Oc4cccc5[nH]cnc45)c3)CC2)=C(c2ccc(Cl)cc2)C1` [Example 456, 2-(1H-benzimidazol-4-yloxy)-4-(4-{[2-(4-chlorophenyl)-4,4-dimethylcyclohex-1-en-1-yl]methyl}piperazin-1-yl)-N-[(4-{[(4,4-difluorocyclohexyl)methyl]amino}-3-nitrophenyl)sulfonyl]benzamide], in that order: < 0.01 nM, 0.54 nM and 54.0.
For `CC(=O)N1CCOC(CNc2ccc(S(=O)(=O)NC(=O)c3ccc(N4CCN(CC5=C(c6ccc(Cl)cc6)CC(C)(C)CC5)CC4)cc3Oc3cccc4[nH]cnc34)cc2[N+](=O)[O-])C1` (stereo not shown) [Example 457, N-[(4-{[(4-acetylmorpholin-2-yl)methyl]amino}-3-nitrophenyl)sulfonyl]-2-(1H-benzimidazol-4-yloxy)-4-(4-{[2-(4-chlorophenyl)-4,4-dimethylcyclohex-1-en-1-yl]methyl}piperazin-1-yl)benzamide], the Ki at GST-Bcl-2 turned out to be 0.045 nM; on GST-Bcl-XL, 331 nM. Further, the “Binding selectivity ratio” value on GST-Bcl-2 came out at 7413.6.
For `CC1(C)CCC(CN2CCN(c3ccc(C(=O)NS(=O)(=O)c4ccc(NCC5CN(S(C)(=O)=O)CCO5)c([N+](=O)[O-])c4)c(Oc4cccc5[nH]cnc45)c3)CC2)=C(c2ccc(Cl)cc2)C1` (stereo not shown) [Example 458, 2-(1H-benzimidazol-4-yloxy)-4-(4-{[2-(4-chlorophenyl)-4,4-dimethylcyclohex-1-en-1-yl]methyl}piperazin-1-yl)-N-{[4-({[4-(methylsulfonyl)morpholin-2-yl]methyl}amino)-3-nitrophenyl]sulfonyl}benzamide], at GST-Bcl-2, the Ki was < 0.01 nM and the “Binding selectivity ratio” value stood at 237.2. Further, the inhibition constant (Ki) at GST-Bcl-XL was found to be 2.37 nM.
The like results for `CC1(C)CCC(CN2CCN(c3ccc(C(=O)NS(=O)(=O)c4cnc(OCC5(F)CCN(C(CF)CF)CC5)c(C(F)(F)F)c4)c(Oc4cccc5[nH]ncc45)c3)CC2)=C(c2ccc(Cl)cc2)C1` [Example 459, 4-(4-{[2-(4-chlorophenyl)-4,4-dimethylcyclohex-1-en-1-yl]methyl}piperazin-1-yl)-N-{[6-({4-fluoro-1-[2-fluoro-1-(fluoromethyl)ethyl]piperidin-4-yl}methoxy)-5-(trifluoromethyl)pyridin-3-yl]sulfonyl}-2-(1H-indazol-4-yloxy)benzamide] were, in that order, < 0.01 nM, 541.6 and 5.42 nM.
Regarding `CC1(C)CCC(CN2CCN(c3ccc(C(=O)NS(=O)(=O)c4ccc(NCC5CCOCC5)c([N+](=O)[O-])c4)c(Oc4ccccc4)c3)CC2)=C(c2ccc(Cl)cc2)C1` [Example 460, 4-(4-{[2-(4-chlorophenyl)-4,4-dimethylcyclohex-1-en-1-yl]methyl}piperazin-1-yl)-N-({3-nitro-4-[(tetrahydro-2H-pyran-4-ylmethyl)amino]phenyl}sulfonyl)-2-phenoxybenzamide], the Ki at GST-Bcl-2 was determined as 0.049 nM; at GST-Bcl-XL, 29 nM.
Regarding `CC1(C)CCC(CN2CCN(c3ccc(C(=O)NS(=O)(=O)c4cnc(OCCC5CCCO5)c(Cl)c4)c(Oc4cccc5[nH]ncc45)c3)CC2)=C(c2ccc(Cl)cc2)C1` (stereo not shown) [Example 461, 4-(4-{[2-(4-chlorophenyl)-4,4-dimethylcyclohex-1-en-1-yl]methyl}piperazin-1-yl)-N-{[5-chloro-6-(2-tetrahydrofuran-2-ylethoxy)pyridin-3-yl]sulfonyl}-2-(1H-indazol-4-yloxy)benzamide], the inhibition constant Ki at GST-Bcl-2 amounted to 0.093 nM; on GST-Bcl-XL, 3.65 nM. For the same compound, the “Binding selectivity ratio” value at GST-Bcl-2 is given as 39.4.
Regarding `CC1(C)CCC(CN2CCN(c3ccc(C(=O)NS(=O)(=O)c4ccc(NC[C@H]5CC[C@H](C#N)CC5)c([N+](=O)[O-])c4)c(Oc4cccc5[nH]cnc45)c3)CC2)=C(c2ccc(Cl)cc2)C1` [Example 462, Trans-2-(1H-benzimidazol-4-yloxy)-4-(4-{[2-(4-chlorophenyl)-4,4-dimethylcyclohex-1-en-1-yl]methyl}piperazin-1-yl)-N-[(4-{[(4-cyanocyclohexyl)methyl]amino}-3-nitrophenyl)sulfonyl]benzamide], the values for the inhibition constant (Ki) on GST-Bcl-2 and on GST-Bcl-XL were 0.026 nM and 18.4 nM, respectively.
Consider `CC1(C)CCC(CN2CCN(c3ccc(C(=O)NS(=O)(=O)c4cnc(OCC5CCC(F)(F)CC5)c(Cl)c4)c(Oc4cccc5[nH]cnc45)c3)CC2)=C(c2ccc(Cl)cc2)C1` [Example 463, 2-(1H-benzimidazol-4-yloxy)-N-({5-chloro-6-[(4,4-difluorocyclohexyl)methoxy]pyridin-3-yl}sulfonyl)-4-(4-{[2-(4-chlorophenyl)-4,4-dimethylcyclohex-1-en-1-yl]methyl}piperazin-1-yl)benzamide], for which the Ki on GST-Bcl-2 was 0.007 nM; at GST-Bcl-XL, 43.9 nM. Further, at GST-Bcl-2, the “Binding selectivity ratio” value was found to be 6042.9.
For `CC1(C)CCC(CN2CCN(c3ccc(C(=O)NS(=O)(=O)c4ccc(OCC5(F)CCOCC5)c(Cl)c4)c(Oc4cccc5[nH]ncc45)c3)CC2)=C(c2ccc(Cl)cc2)C1` [Example 464, N-({3-chloro-4-[(4-fluorotetrahydro-2H-pyran-4-yl)methoxy]phenyl}sulfonyl)-4-(4-{[2-(4-chlorophenyl)-4,4-dimethylcyclohex-1-en-1-yl]methyl}piperazin-1-yl)-2-(1H-indazol-4-yloxy)benzamide], in that order: 0.081 nM, 521 nM and 6431.8.
Take `CC1(C)CC(c2ccc(Cl)cc2)=C(CN2CCN(c3ccc(C(=O)NS(=O)(=O)c4cnc(OCC5(F)CCOCC5)c(Cl)c4)c(Oc4cccc5[nH]ncc45)c3)CC2)CO1` [Example 465, N-({5-chloro-6-[(4-fluorotetrahydro-2H-pyran-4-yl)methoxy]pyridin-3-yl}sulfonyl)-4-(4-{[4-(4-chlorophenyl)-6,6-dimethyl-5,6-dihydro-2H-pyran-3-yl]methyl}piperazin-1-yl)-2-(1H-indazol-4-yloxy)benzamide]: the Ki came out at 0.025 nM on GST-Bcl-2 and 37.2 nM on GST-Bcl-XL. Further, the “Binding selectivity ratio” value at GST-Bcl-2 was 1472.4.
For `CC1(C)CCC(CN2CCN(c3ccc(C(=O)NS(=O)(=O)c4cnc(OCC5CCC(F)(F)CC5)c(Cl)c4)c(Oc4cccc5[nH]ncc45)c3)CC2)=C(c2ccc(Cl)cc2)C1` [Example 482, N-({5-chloro-6-[(4,4-difluorocyclohexyl)methoxy]pyridin-3-yl}sulfonyl)-4-(4-{[2-(4-chlorophenyl)-4,4-dimethylcyclohex-1-en-1-yl]methyl}piperazin-1-yl)-2-(1H-indazol-4-yloxy)benzamide], in that order: 0.064 nM, 350 nM and 5442.9.
For the compound `CC1(C)CCC(CN2CCN(c3ccc(C(=O)NS(=O)(=O)c4cnc(OC[C@H]5CC[C@H](C(N)=O)CC5)c(Cl)c4)c(Oc4cccc5[nH]ncc45)c3)CC2)=C(c2ccc(Cl)cc2)C1` [Example 483, N-({6-[(trans-4-carbamoylcyclohexyl)methoxy]-5-chloropyridin-3-yl}sulfonyl)-4-(4-{[2-(4-chlorophenyl)-4,4-dimethylcyclohex-1-en-1-yl]methyl}piperazin-1-yl)-2-(1H-indazol-4-yloxy)benzamide], on GST-Bcl-2, the Ki was < 0.01 nM and the “Binding selectivity ratio” value is >563.0. In addition, at GST-Bcl-XL, the affinity corresponds to a Ki of 5.63 nM.
Take `CC1(C)CCC(CN2CCN(c3ccc(C(=O)NS(=O)(=O)c4ccc(NC[C@H]5CC[C@H](C#N)CC5)c([N+](=O)[O-])c4)c(Oc4cccc5[nH]ncc45)c3)CC2)=C(c2ccc(Cl)cc2)C1` [Example 484, 4-(4-{[2-(4-chlorophenyl)-4,4-dimethylcyclohex-1-en-1-yl]methyl}piperazin-1-yl)-N-[(4-{[(trans-4-cyanocyclohexyl)methyl]amino}-3-nitrophenyl)sulfonyl]-2-(1H-indazol-4-yloxy)benzamide]: at GST-Bcl-2, the Ki is < 0.01 nM and the “Binding selectivity ratio” value is listed as >3433.9. Also, the Ki on GST-Bcl-XL turned out to be 34.3 nM.
Consider `CC1(C)CCC(CN2CCN(c3ccc(C(=O)NS(=O)(=O)c4cnc(OCCn5ccnc5)c(Cl)c4)c(Oc4cccc5[nH]ncc45)c3)CC2)=C(c2ccc(Cl)cc2)C1` [Example 485, N-({5-chloro-6-[2-(1H-imidazol-1-yl)ethoxy]pyridin-3-yl}sulfonyl)-4-(4-{[2-(4-chlorophenyl)-4,4-dimethylcyclohex-1-en-1-yl]methyl}piperazin-1-yl)-2-(1H-indazol-4-yloxy)benzamide], for which, at GST-Bcl-2, the inhibition constant Ki came out at 0.167 nM and the “Binding selectivity ratio” value stood at 324.0. The inhibition constant Ki on GST-Bcl-XL is 54.2 nM.
Consider `Cn1cncc1COc1ncc(S(=O)(=O)NC(=O)c2ccc(N3CCN(CC4=C(c5ccc(Cl)cc5)CC(C)(C)CC4)CC3)cc2Oc2cccc3[nH]ncc23)cc1Cl` [Example 486, N-({5-chloro-6-[(1-methyl-1H-imidazol-5-yl)methoxy]pyridin-3-yl}sulfonyl)-4-(4-{[2-(4-chlorophenyl)-4,4-dimethylcyclohex-1-en-1-yl]methyl}piperazin-1-yl)-2-(1H-indazol-4-yloxy)benzamide], for which, at GST-Bcl-2, the Ki amounted to 0.328 nM and the “Binding selectivity ratio” value is recorded as 77.6. The inhibition constant Ki at GST-Bcl-XL was found to be 25.5 nM.
